Patent US5385918A, “Aminomethylene-peptides as immunosuppressants” (Miles Inc., priority 1993, dated 1995)
Where two headings read alike, the source gives them in different places.

What was measured:
[1] = system: NF-AT (FGL-5 cells); experiment: NF-AT Inhibition Assay Directed β-Galactosidase Expression; format: cell-based
Method: Inhibition of NF-AT activity is measured using FGL-5 cells. FGL-5 is a cloned line of stably transfected Jurkat T-cells that contain a construct in which three tandem copies of the NF-AT DNA binding site direct transcription of the lacZ gene, encoding β-galactosidase (Fiering et al., 1990, Genes & Development 4:1823). When these cells are stimulated with phorbol esters which activate protein kinase C and calcium ionophore to raise the intracellular calcium concentration, transcriptionally active NF-AT is produced. In T-cells, this normally leads to the expression of IL-2, T-cell growth factor. However, in FGL-5 cells NF-AT activation leads to the production of β-galactosidase which can be detected using an appropriate substrate.
This assay was performed essentially as described (Bierer et al., 1990, Proc. Natl. Acad. Sci. 87:923 1). FGL-5 cells were maintained in medium consisting of RPMI-1640 with 10% FBS, 2 mM L-glutamine, 1% Penicillin-Streptomycin and 15 mM HEPES buffer. The assays were done with exponentially growing cells whose density was not greater than 0.5 million cells/ml. The cells were resuspended to 3 million cells/ml in medium and 0.1 ml was added to wells of a 96-well plate.
The compounds of the present invention were dissolved in either ethanol or dimethylsulfoxide at 10 mM and 0.05 ml/well of various dilutions in medium were added to cells in duplicate wells. Treatment controls consisted of duplicate wells to which 0.05 ml/well of either medium, ethanol or dimethylsulfoxide was added. The ethanol and dimethyl sulfoxide were at the same concentration as was used for the compounds. Cells were incubated with compounds at room temperature for 10-15 minutes. Phorbol dibutyrate (Sigma) and Ionomycin (Calbiochem) were dissolved at 50 μg/ml and 2 mM, respectively and stored at -70° C.
FGL-5 cells were stimulated by diluting these reagents with medium to 200 ng/ml and 8 μM, respectively and adding of 0.05 ml/well. For unstimulated cell controls, 0.05 ml/well of medium was added to duplicate wells. The plates were incubated overnight (16-18 hours) at 37° C. in a humidified atmosphere of 5% CO2 and air.
β-galactosidase activity was measured as the fluorescence generated by the cleavage of 4-methyl umbelliferyl-β-D-galactoside (Sigma) at the β-galactoside bond. After overnight incubation, the cells were centrifuged at 500×g for 3 minutes in the 96-well plates and washed 3 times with PBS. The cells were then resuspended in 0.18 ml/well of reaction medium containing 100 mM sodium phosphate buffer, pH 7.0, 10 mM potassium chloride, 1 mM magnesium sulfate, 0.1% Triton X-100 (Pierce, Rockford, Ill.), and 0.5 mM 4-methylumbelliferyl-β-D-galactoside.
The fluorescence at 460 nm using 3 55 nm excitation was measured at intervals over 1-2 hours (during which fluorescence increased linearly with time) with a LS50 Luminescence Spectrometer (Perkin Elmer).
The percent inhibition by each concentration of the compounds was calculated as: [formula]
The values of the concentration of compounds required for 50% inhibition (IC50) were determined by linear regression analysis of the percent inhibition at various compound concentrations.

[2] = system: Lewis rats; experiment: Adjuvant Arthritis Model in the Rat; format: in vivo; settings: for % Inhibition: inhibition of swelling in uninjected limb vs vehicle control, 10 mg/kg/dose i.p.; for ΔAnkle Diameter: uninjected hind paw, day 0 to day 16, 10 mg/kg/dose i.p. on days -1, 0, 2, 5, 7, 9, 12 and 14
Method: Complete Freund's adjuvant is made by supplementing extra heavy mineral oil with 10 mg/ml heat killed Mycobacterium butyricum (Difco Laboratories, Detroit, Mich.). Lewis rats (Charles Rivers, Willmington, Mass.) are given a 0.1 ml injection of adjuvant (1 mg/animal mycobacterium) subcutaneously into the right hind footpad. In the injected foot, an acute inflammatory reaction occurs which is characterized by erythema, edema and a predominantly neutrophilic cell infiltrate. This is followed by edema in the uninjected contralateral foot by days 10-12. This secondary response is accompanied by a predominantly mononuclear cell infiltrate, indicating the presence of cell-mediated immunity.
The immune response is quantitated by measuring the change in ankle diameter of the uninjected hind paw from day 0 to day 16 post sensitization. This is accomplished using a hand-held dial micrometer. Animals are administered test drugs, suspended in a vehicle consisting of 5% polyethylene glycol and 0.5% Tween-80 (Sigma Chemical Co., St. Louis, Mo.) in phosphate buffered saline (GIBCO, Grand Island, N.Y.), i.p. on days -1, 0, 2, 5, 7, 9, 12 and 14. Several compounds when administered at 10 mg/kg/dose inhibited the swelling in the uninjected limb compared with the control groups that were sensitized with Complete Freund's Adjuvant but received only the vehicle i.p. (Table 4).

[3] = inhibition of β-galactosidase activity in FGL-5 cells stimulated with phorbol dibutyrate and ionomycin, read-out: IC50
[4] = stimulated FGL-5 cells, read-out: IC50 for NF-AT directed β-galactosidase expression

Row | IC50 [1, 3] | IC50 [1, 4] | Structure (SMILES) | % Inhibition [2] | ΔAnkle Diameter [2]
1 | 13 µM | – | CC[C@H](C)[C@H](NC(=O)[C@@H]1CCCN1C[C@H](CC(C)C)NC(=O)OC(C)(C)C)C(=O)NCc1ccccc1 [Example 2, 1-[1-[2-(S)-[[(1,1-Dimethylethoxy)carbonyl]amino]-4-methylpentyl]-L-proline]-L-isoleucine Benzylamide] | – | –
2 | 1 µM | – | CC[C@H](C)[C@H](NC(=O)[C@@H]1CCCCN1C[C@@H](NC(=O)OC(C)(C)C)[C@@H](C)CC)C(=O)NCc1ccccc1 [Example 3, 1-[1-[2-(S)-[[(1,1-Dimethylethoxy)carbonyl]amino]-3-(S)-methylpentyl]-L-homoproline]-L-isoleucine Benzylamide] | 30% | 2.6 ± 0.4 mm
3 | > 15 µM | – | CCC(C)[C@@H](CN1CCC[C@H]1C(=O)N[C@H](C(=O)NCc1ccccc1)[C@@H](C)CC)NC(=O)[C@H](CC1CCCCC1)NC(=O)OC(C)(C)C (stereo partly drawn) [Example 7, 1-[1-[2-(S)-[[2-(S)-[[(1,1-Dimethylethoxy)carbonyl]amino]-1-oxo-3-cyclohexylpropyl]amino]-3-methylpentyl]-L-proline]-L-isoleucine Benzylamide] | – | –
4 | > 15 µM | – | CCC(C)[C@@H](CN1CCC[C@H]1C(=O)N[C@H](C(=O)NCc1ccccc1)[C@@H](C)CC)NC(=O)[C@@H](N)CC1CCCCC1 (some centres unmarked) [Example 8] | – | –
5 | – | ≤ 10 µM | CC[C@H](C)[C@H](NC(=O)[C@@H]1CCCN1C[C@H](CC(C)C)NC(=O)[C@H](CC(N)=O)NC(=O)[C@H](Cc1ccccc1)NC(=O)OC(C)(C)C)C(=O)OCc1ccccc1 [Example 14, 1-[1-[2-(S)-[[1-[1-[(1,1-Dimethylethoxy)carbonyl]-L-phenylalanyl]-L-asparaginyl]amino]-4-methylpentyl]-L-proline]-L-isoleucine Phenylmethyl Ester] | – | –
6 | 19 µM | – | CC[C@H](C)[C@H](NC(=O)[C@@H]1CCCN1C[C@H](CC1CCCCC1)NC(=O)OC(C)(C)C)C(=O)NCc1ccccc1 [Example 16, 1-[1-[2-(S)-[[(1,1-dimethylethoxy)carbonyl]amino]-3-cyclohexylpropyl]-L-proline]-L-isoleucine Benzylamide] | – | –
7 | 29 µM | ≤ 10 µM | CC[C@H](C)[C@H](NC(=O)[C@@H]1CCCN1C[C@@H](NC(=O)OC(C)(C)C)C(C)C)C(=O)NCc1ccccc1 [Example 17, 1-[1-[2-(S)-[[(1,1-dimethylethoxy)carbonyl]amino]-3-methylbutyl]-L-proline] -L-isoleucine Benzylamide] | – | –
8 | > 15 µM | – | CC[C@H](C)[C@H](NC(=O)[C@@H]1CCCCN1C[C@H](CC(C)C)NC(=O)OC(C)(C)C)C(=O)NCc1ccccc1 [Example 18, 1-[1-[2-(S)-[[(1,1-Dimethylethoxy)carbonyl]amino]-4-methylpentyl]-L-homoproline]-L-isoleucine Benzylamide] | – | –
9 | 9 µM | – | CC[C@H](C)[C@@H](CN1CCCC[C@H]1C(=O)N[C@H](C(=O)NCc1ccccc1)[C@@H](C)OCc1ccccc1)NC(=O)OC(C)(C)C [Example 19, 1-[1-[2-(S)-[[(1,1-Dimethylethoxy)carbonyl]amino]-3-(S)-methylpentyl]-L-homoproline]-L-threonene(O-Benzyl Ether)Benzylamide] | 43% | 2.1 ± 0.6 mm

Row | Structure (SMILES) | IC50 [1, 3] | IC50 [1, 4] | % Inhibition [2] | ΔAnkle Diameter [2]
10 | CC[C@H](C)[C@H](NC(=O)[C@@H]1CCCN1C[C@@H](NC(=O)OC(C)(C)C)[C@@H](C)CC)C(=O)NCc1ccccc1 [Example 6] | 8 µM | – | 4% | 3.2 ± 0.3 mm
